Legend:
Assay in all cases: drug sensitivity score (DSS) (DSS (unitless, 0-50 scale)); higher = more sensitive (stronger viability inhibition); extreme values may be limits of the assay
Conditions in all cases: 72 h; culture: 2D
FM-MEL-6 = tested on: FM-MEL-6
Method in brief: (§1)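 Drug sensitivity scores, modified area-under-curve measures, were derived from dose-response curves fitted in the in-house Breeze software. The curves came from melanoma cell lines and patient-derived melanoma cultures (1000–1500 cells per well) grown in 2D in 384-well plates holding a 527-compound oncology library. Each compound was dissolved in DMSO or water and tested at five concentrations across a 10,000-fold range. Viability was read by CellTiter-Glo luminescence after 72 h at 37 °C.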

SK-MEL-2 = tested on: SK-MEL-2
Method in brief: as §1

FM-MEL-3 = tested on: FM-MEL-3
Method in brief: as §1

Bowes = tested on: Bowes
Method in brief: as §1

FM-MEL-2 = tested on: FM-MEL-2
Method in brief: as §1

WM165 = tested on: WM165
Method in brief: as §1

WM852 = tested on: WM852
Method in brief: as §1

SK-MEL-28 = tested on: SK-MEL-28
Method in brief: as §1

SMILES | drug sensitivity score (FM-MEL-6) | drug sensitivity score (SK-MEL-2) | drug sensitivity score (FM-MEL-3) | drug sensitivity score (Bowes) | drug sensitivity score (FM-MEL-2) | drug sensitivity score (WM165) | drug sensitivity score (WM852) | drug sensitivity score (SK-MEL-28)
CO[C@H](C(=O)[C@@H](O)[C@@H](C)O)[C@@H]1Cc2cc3cc(O[C@H]4C[C@@H](O[C@@H]5C[C@@H](O)[C@H](O)[C@@H](C)O5)[C@H](O)[C@@H](C)O4)c(C)c(O)c3c(O)c2C(=O)[C@H]1O[C@H]1C[C@@H](O[C@@H]2C[C@@H](O)[C@@H](O[C@@H]3C[C@](C)(O)[C@H](O)[C@@H](C)O3)[C@@H](C)O2)[C@H](O)[C@@H](C)O1 [Plicamycin] | 7.4 | 16.8 | 21.3 | 26.4 | 12.7 | 15.7 | 3.2 | 8.6
Nc1cccc2c1C(=O)N(C1CCC(=O)NC1=O)C2=O (configuration not stated) [Pomalidomide] | 0 | 0 | 0 | 0 | 0 | 0 | 0 | 0
Cc1ccc(C(=O)Nc2ccc(CN3CCN(C)CC3)c(C(F)(F)F)c2)cc1C#Cc1cnc2cccnn12 [Ponatinib] | 4.5 | 4.4 | 9.1 | 9.1 | 7.8 | 8.3 | 6.2 | 4.9
C=CC(=O)N1CCC(Oc2cc3c(Nc4ccc(Cl)c(Cl)c4F)ncnc3cc2OC)CC1 [Poziotinib] | 0 | 0 | 0 | 2.2 | 0 | 0 | 0 | 0
CCCCc1nc2cc(/C=C/C(=O)NO)ccc2n1CCN(CC)CC [Pracinostat] | 14 | 14 | 13.3 | 9.2 | 14.5 | 16.8 | 9.1 | 12.9
CC[C@H](C)C(=O)O[C@H]1C[C@H](O)C=C2C=C[C@H](C)[C@H](CC[C@@H](O)C[C@@H](O)CC(=O)O)[C@H]21 [Pravastatin] | 0 | 0 | 0 | 0 | 0.8 | 0 | 0 | 0
C[C@]12C=CC(=O)C=C1CC[C@@H]1[C@@H]2[C@@H](O)C[C@@]2(C)[C@H]1CC[C@]2(O)C(=O)CO [Prednisolone] | 0 | 0 | 2.8 | 0 | 0.3 | 0 | 0 | 0
Cn1cc(CNCC2CCN(c3ncc(C(=O)NO)cn3)CC2)c2ccccc21 [Quisinostat] | 10.6 | 13.5 | 11.3 | 9 | 13.4 | 16.3 | 5.7 | 10.7
Nc1cc(F)ccc1NC(=O)/C=C/c1cnn(C/C=C/c2ccccc2)c1 [RGFP966] | 1.9 | 0 | 0.5 | 1.6 | 0 | 0 | 0 | 0
COC(=O)c1ccc([C@H]2c3[nH]c4ccccc4c3C[C@H](C(=O)OC)N2C(=O)CCl)cc1 [RSL3] | 0 | 0 | 0 | 0 | 0 | 0 | 0 | 0
Cc1cnc(NC(=O)Nc2cc(Br)c(C)cc2OC[C@@H]2CNCCO2)cn1 [Rabusertib] | 0 | 0 | 1.5 | 0.9 | 0 | 0 | 2.4 | 0
Cc1cn(-c2cc(NC(=O)c3ccc(C)c(Nc4nccc(-c5cnccn5)n4)c3)cc(C(F)(F)F)c2)cn1 [Radotinib] | 2.6 | 0 | 8.6 | 0 | 5 | 0 | 0 | 0
CC(C)(C)Cn1c(N)nc2ccc(-c3[nH]c(C(C)(C)C)nc3-c3ccc(F)cc3)nc21 [Ralimetinib] | 0 | 0 | 6.1 | 0 | 5.4 | 2.9 | 1 | 2
O=C(c1ccc(OCCN2CCCCC2)cc1)c1c(-c2ccc(O)cc2)sc2cc(O)ccc12 [Raloxifene] | 1.8 | 0 | 4.7 | 0 | 2.1 | 2 | 1.9 | 1.3
Cc1nc(=O)c2cc(CN(C)c3ccc(C(=O)N[C@@H](CCC(=O)O)C(=O)O)s3)ccc2[nH]1 [Raltitrexed] | 0 | 0 | 0 | 23.9 | 0 | 8.4 | 0 | 3.9
Cn1nccc1Nc1nccc(-c2ccn([C@H](CO)c3ccc(Cl)c(F)c3)c(=O)c2)n1 [Ravoxertinib] | 5.6 | 5.2 | 12.4 | 1.7 | 11.9 | 12 | 1.9 | 13.1
CNC(=O)c1cc(Oc2ccc(NC(=O)Nc3ccc(Cl)c(C(F)(F)F)c3)c(F)c2)ccn1 [Regorafenib] | 3.7 | 2.8 | 12.9 | 6.7 | 8.5 | 5.3 | 1.8 | 4.6
CCOC(=O)C1=CCCC[C@H]1S(=O)(=O)Nc1ccc(F)cc1Cl [Resatorvid] | 0 | 0 | 0 | 0 | 0 | 0 | 0 | 0
CCOCc1nc2c(N)nc3ccccc3c2n1CC(C)(C)O [Resiquimod] | 0.2 | 0 | 0 | 0.1 | 0 | 0 | 0.4 | 0
